Data as given in patent US5070210A, “Novel ketenimines as intermediates for insecticides” (ICI Americas Inc., priority 1990, dated 1991).

Tests used:
Assay type in all cases: in vivo
[1] = tested on: Housefly [Musca domestica]; assay: Housefly insecticidal test; settings: μg per 25 female flies; mortality after 48 hours
Outline: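 Residual contact test: acetone dilution, 0.01% peanut oil spreader, solvent evaporated; 25 ♀ flies (1-2 d old) per cage; sugar-water plug; 48 h mortality read. LC50 in μg/25 female flies, from dose-mortality curves; top dose 100 μg/25 flies.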

[2] = tested on: Tobacco Budworm [Heliothis virescens (Fabricius)] larvae; assay: Tobacco budworm contact test; settings: second-instar larvae, percent in solution, 5 days
Outline: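 Cotton cotyledons dipped 2–3 s in compound in 50-50 acetone-water, dried, then infested with 5 second-instar larvae and held 5 days at high humidity. Mortality scored; LC50 from dosage-mortality curves, expressed as percent compound in solution, concentrations from 0.1% downward.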

[3] = tested on: Tobacco Budworm [Heliothis virescens (Fabricius)] eggs; assay: Tobacco budworm egg test; settings: 2-day old eggs, percent in solution
Outline: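 LC50 values (percent test compound in the dip solution) were calculated from dosage-mortality curves. Egg patches, 2 days old, were dipped in acetone solutions at concentrations from 0.1% downward and held at 78° F on rearing medium until control larvae hatched and fed.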

[4] = tested on: Beet Armyworm (Spodoptera exigua); assay: Beet armyworm insecticidal test; settings: second-instar larvae, percent in solution; five days
Method: The compounds in Tables 1 and 2 above were tested for insecticidal activity using the following testing procedures. LC50 values, based on the results of these tests and calculated according to dosage-mortality curves, are expressed in Table 3.
Beet Armyworm (Spodoptera exigua):
Test compounds were diluted in a 50-50 acetone-water solution. Young leaves of sugar beets (Beta vulgaris) were immersed in the test solutions for 2-3 seconds and placed on a wire screen to dry. The dried leaves were placed in petri dishes containing a moistened filter paper and infested with five second-instar beet armyworm larvae. The dishes were placed in a high humidity chamber. Mortality of the larvae was recorded five days later. Test concentrations ranged from 0.1% downward. The LC-50 values are expressed below in Table 3 under the heading "BAW" in terms of percent of the test compound in solution.

[5] = tested on: Cabbage Looper [Trichoplusia ni (Hubner)]; assay: Cabbage looper insecticidal test; settings: second-instar larvae, percent in solution; 3-5 days
Outline: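 Leaf dip, squash cotyledons, 50-50 acetone-water, top dose 0.1% and lower. 5 second-instar larvae/dish, moist filter paper, high-humidity chamber. Mortality at 3-5 d; LC50 (% in solution) from dosage-mortality curves.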

[6] = tested on: Aster Leafhopper [Macrosteles fascifrens (Stal)]; assay: Aster leafhopper insecticidal test; settings: adults/nymphs, percent in solution; 48 hours
Outline: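 Three ~10 cm oat seedlings per cup were dipped 2-3 seconds in 50-50 acetone-water compound solutions, dried, and caged with ten adult/nymph leafhoppers. Mortality was counted after 48 hours at concentrations from 0.05% downward. LC50, as percent compound in solution, came from dosage-mortality curves.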

[7] = tested on: Maize weevil [Sitophilus Zeamais (Motschulsky)]; assay: Maize weevil insecticidal test; settings: adult weevils, percent in solution; 48 hours
Outline: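 LC50, in percent of compound in solution, was derived from dosage-mortality curves after 48 h at about 25 °C. Ten adult weevils per container fed on four corn seeds briefly immersed in acetone:water (50:50) solutions of up to 0.01% and dried.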

SMILES | LC50, HF [1] [µg] | LC50, TBW, C (TBW-C) [2] [%] | LC50, TBW, E (TBW-E) [3] [%] | LC50, BAW [4] [%] | LC50, CL [5] [%] | LC50, LH [6] [%] | LC50, MW [7] [%]
Clc1cccc(N=C(OCc2cccc(Oc3ccccc3)c2)C(Cl)Cl)c1 [Compound 1] | 4.8 | 0.06 | 0.05 | 0.009 | 0.005 | > 0.05 | > 0.01
CC(C)C(=Nc1ccc(Cl)cc1)OCc1cccc(Oc2ccccc2)c1 [Compound 2] | 4.5 | 0.0009 | 0.04 | 0.01 | 0.006 | 0.0003 | –
CC(Cl)(Cl)C(=Nc1ccc(Cl)cc1)OCc1cccc(Oc2ccccc2)c1 [Compound 3] | 50 | 0.009 | > 0.1 | 0.015 | 0.012 | > 0.05 | > 0.01
Clc1ccc(N=C(OCc2cccc(Oc3ccccc3)c2)C(Cl)Cl)c(Cl)c1 [Compound 4] | 100 | 0.05 | > 0.1 | 0.04 | 0.007 | > 0.05 | –
CC(C)C(=Nc1ccc(Cl)c(Cl)c1)OCc1cccc(Oc2ccccc2)c1 [Compound 9] | 14 | 0.0008 | 0.02 | 0.0005 | 0.001 | 0.0003 | > 0.01
Clc1ccc(N=C(OCc2cccc(Oc3ccccc3)c2)C(Cl)Cl)cc1 [Compound 29] | 5 | 0.001 | 0.01 | 0.003 | 0.002 | 0.003 | > 0.01
ClCC(=Nc1ccc(Cl)cc1)OCc1cccc(Oc2ccccc2)c1 [Compound 31] | > 100 | 0.01 | > 0.1 | 0.08 | 0.05 | > 0.05 | > 0.01
Clc1ccc(N=C(OCc2cccc(Oc3ccccc3)c2)C2CC2)cc1 [Compound 32] | 37 | 0.006 | 0.1 | 0.03 | 0.003 | > 0.05 | > 0.01
CC(Cl)C(=Nc1ccc(Cl)cc1)OCc1cccc(Oc2ccccc2)c1 (centres unmarked) [Compound 33] | 17 | 0.0025 | > 0.1 | 0.02 | 0.01 | > 0.05 | > 0.01
CC(=Nc1ccccc1)OCc1cccc(Oc2ccccc2)c1 [Compound 42] | 45 | > 0.1 | > 0.1 | > 0.1 | > 0.1 | > 0.05 | > 0.01
Fc1ccc(N=C(OCc2cccc(Oc3ccccc3)c2)C2CC2)cc1 [Compound 45] | 30 | 0.01 | 0.08 | 0.1 | 0.03 | > 0.05 | –
CC(C)C(=Nc1cccc(F)c1)OCc1cccc(Oc2ccccc2)c1 [Compound 47] | 10 | 0.002 | 0.06 | 0.002 | 0.002 | 0.0003 | –
CC(C)C(=Nc1ccc(F)cc1F)OCc1cccc(Oc2ccccc2)c1 [Compound 52] | 8 | 0.004 | > 0.05 | 0.01 | 0.0025 | 0.001 | –
CC(C)C(=Nc1ccc(F)c(F)c1)OCc1cccc(Oc2ccccc2)c1 [Compound 54] | 3.5 | 0.001 | 0.017 | 0.004 | 0.0003 | 0.00015 | –
FC(F)(F)c1ccc(N=C(OCc2cccc(Oc3ccccc3)c2)C(Cl)Cl)cc1 [Compound 61] | 29 | 0.03 | 0.03 | 0.002 | 0.001 | > 0.05 | > 0.01
FC(F)(F)c1ccc(N=C(OCc2cccc(Oc3ccccc3)c2)C2CC2)cc1 [Compound 62] | 20 | 0.0015 | 0.025 | 0.02 | 0.005 | > 0.05 | > 0.01
FC(F)(F)Oc1ccc(N=C(OCc2cccc(Oc3ccccc3)c2)C(Cl)Cl)cc1 [Compound 64] | 11 | 0.1 | 0.03 | 0.0025 | 0.0025 | > 0.05 | > 0.01
FC(F)(F)c1ccc(N=C(OCc2cccc(Oc3ccccc3)c2)C2CC2)c(Cl)c1 [Compound 65] | > 100 | 0.1 | > 0.1 | > 0.1 | < 0.01 | > 0.05 | –
CC(C)C(=Nc1ccc(Cl)c(C(F)(F)F)c1)OCc1cccc(Oc2ccccc2)c1 [Compound 71] | 50 | 0.0008 | 0.065 | 0.0004 | 0.0006 | 0.002 | –
CC(C)C(=Nc1cc(F)cc(C(F)(F)F)c1)OCc1cccc(Oc2ccccc2)c1 [Compound 77] | 10 | 0.0004 | 0.03 | 0.004 | 0.0005 | 0.0002 | > 0.01
CC(C)C(=Nc1cccc(C(F)(F)F)c1)OCc1ccc(F)c(Oc2ccccc2)c1 [Compound 80] | 4.5 | 0.00075 | 0.005 | 0.0018 | 0.0003 | 0.0001 | –
CC(C)C(=Nc1ccc(C(C)C)cc1)OCc1cccc(Oc2ccccc2)c1 [Compound 144] | 100 | 0.006 | 0.05 | > 0.01 | 0.002 | 0.0006 | > 0.01
CC(C)C(=Nc1ccc2c(c1)OCO2)OCc1cccc(Oc2ccc(F)cc2)c1 [Compound 176] | 1.8 | 0.002 | 0.05 | 0.0035 | 0.0005 | > 0.05 | 0.009
CC(C)C(=Nc1ccc2c(c1)OC(F)(F)O2)OCc1ccc(F)c(Oc2ccc(F)cc2)c1 [Compound 284] | 39 | 0.0002 | – | 0.0025 | 0.00005 | 0.0003 | 0.0075
CC(C)C(=Nc1ccc(F)c(Cl)c1)OCc1cc(Oc2ccc(F)cc2)c(F)cc1F [Compound 343] | 40 | 0.00025 | > 0.1 | > 0.1 | 0.00027 | – | > 0.01
CC(C)C(=Nc1ccc2c(c1)OC(F)(F)O2)OCc1cccc(Oc2ccc(Cl)cc2)c1 [Compound 450] | 72 | 0.0001 | 0.015 | 0.005 | 0.00016 | – | 0.01
